Assay results from patent publication US20250145665A1, “MACROCYCLIC PEPTIDES USEFUL AS MODULATORS OF TNF ALPHA” (Bristol-Myers Squibb Company, priority 2023, published 2025).
pIC50: −log10 of the molar value. Where two headings read alike, the source gives them in different places. Starred links: 1 amine or outer side, 2 acyl side, 3 side chain; linkers in the order of their positions; H or OH if unused. Positions of bridges follow the written chain, without caps; N, C: chain ends. Non-standard residues stand in square brackets, D forms with d. Residues, ends and D or L forms follow the SMILES beside them. Bip(4'-NHCO-C6H4-3-CH2COOH) = N[C@@H](Cc1ccc(-c2ccc(NC(=O)c3cccc(CC(=O)O)c3)cc2)cc1)C(=O)O; X47 = O=C(Nc1ccc(-c2ccc(C[C@H](N[*:1])C(=O)[*:2])cc2)cc1)c1coc2ccccc12; Bip(4'-NHBz) = N[C@@H](Cc1ccc(-c2ccc(NC(=O)c3ccccc3)cc2)cc1)C(=O)O; Bip(4'-COOH) = N[C@@H](Cc1ccc(-c2ccc(C(=O)O)cc2)cc1)C(=O)O; Bip(4'-NHAc) = CC(=O)Nc1ccc(-c2ccc(C[C@H](N)C(=O)O)cc2)cc1; Ala(morpholin-4-yl) = N[C@@H](CN1CCOCC1)C(=O)O; Bip = N[C@@H](Cc1ccc(-c2ccccc2)cc1)C(=O)O; 2Pal = N[C@@H](Cc1ccccn1)C(=O)O; Tic = O=C(O)[C@@H]1Cc2ccccc2CN1; 2Thi = N[C@@H](Cc1cccs1)C(=O)O; Chg = N[C@H](C(=O)O)C1CCCCC1; Tle = CC(C)(C)[C@H](N)C(=O)O; Sar = CNCC(=O)O

Target: TNFα (Homo sapiens, UniProt P01375)
Assay: TNF-Induced HEK-Blue Assay
Type: cell-based
[1] = HEK-Blue-CD40L cells, NF-kB-driven secreted alkaline phosphatase reporter, TNFα 0.5 ng/ml, 18 h, read-out: TNF induced HEK-Blue assay IC50 value

Chain of TNFα (P01375 77-233 limits assumed): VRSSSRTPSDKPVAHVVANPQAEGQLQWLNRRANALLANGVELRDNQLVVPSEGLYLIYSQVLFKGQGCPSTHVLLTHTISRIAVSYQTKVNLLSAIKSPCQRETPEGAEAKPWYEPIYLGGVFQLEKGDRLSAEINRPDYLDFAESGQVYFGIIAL

| SMILES | pIC50 [1] | pIC50 |
| --- | --- | --- |
| CC(C)C[C@@H]1NC(=O)[C@H](CCCNC(=N)N)NC(=O)[C@H](C2CCCCC2)NC(=O)[C@@H]2CCCN2C(=O)[C@H](C(C)C)NC(=O)[C@H](CCCNC(=N)N)NC(=O)[C@H](CC(=O)O)NC(=O)[C@@H]2CCCN2C(=O)CN(C)C(=O)[C@H](Cc2ccc(-c3ccccc3)cc2)NC(=O)[C@H](Cc2ccc(-c3ccccc3)cc2)NC(=O)[C@H](CN2CCOCC2)NC(=O)CSC[C@@H](C(=O)NCC(N)=O)NC1=O [Example 207] ({CH2CO}-[Ala(morpholin-4-yl)][Bip][Bip][Sar]PDRVP[Chg]RLCG-NH2; thioether N-13) | 5.70 to 6.70 | – |
| CC(C)C[C@@H]1NC(=O)[C@H](Cc2cnc[nH]2)NC(=O)[C@H](C(C)C)NC(=O)[C@@H]2CCCN2C(=O)[C@H](C(C)C)NC(=O)[C@@H](CCCNC(=N)N)NC(=O)[C@H](CC(=O)O)NC(=O)[C@H](Cc2ccccc2)NC(=O)CN(C)C(=O)[C@H](Cc2ccc(-c3ccc(NC(=O)c4ccccc4)cc3)cc2)NC(=O)[C@H](Cc2ccc(-c3ccccc3)cc2)NC(=O)[C@H](CN2CCOCC2)NC(=O)CSC[C@@H](C(=O)NCC(N)=O)NC1=O [Example 491] ({CH2CO}-[Ala(morpholin-4-yl)][Bip][Bip(4'-NHBz)][Sar]FD[dR]VPVHLCG-NH2; thioether N-13) | – | 6.70 to 7.30 |
| CC(C)C[C@@H]1NC(=O)[C@H](Cc2ccccc2)NC(=O)[C@H](C(C)C)NC(=O)[C@@H]2CCCN2C(=O)[C@H](C(C)C)NC(=O)[C@@H](CCCNC(=N)N)NC(=O)[C@H](CC(=O)O)NC(=O)[C@H](Cc2cnc[nH]2)NC(=O)CN(C)C(=O)[C@H](Cc2ccc(-c3ccccc3)cc2)NC(=O)[C@H](Cc2ccc(-c3ccccc3)cc2)NC(=O)[C@H](CN2CCOCC2)NC(=O)CSC[C@@H](C(=O)NCC(N)=O)NC1=O [Example 231] ({CH2CO}-[Ala(morpholin-4-yl)][Bip][Bip][Sar]HD[dR]VPVFLCG-NH2; thioether N-13) | 6.70 to 7.30 | – |
| CC(=O)Nc1ccc(-c2ccc(C[C@@H]3NC(=O)[C@H](Cc4ccc(-c5ccccc5)cc4)NC(=O)[C@H](C(C)(C)C)NC(=O)CSC[C@@H](C(=O)NCC(N)=O)NC(=O)[C@H](CC(C)C)NC(=O)[C@H](Cc4cccs4)NC(=O)[C@H](C(C)C)NC(=O)[C@@H]4CCCN4C(=O)[C@H](C(C)C)NC(=O)[C@@H](CCCNC(=N)N)NC(=O)[C@H](CC(=O)O)NC(=O)[C@H](Cc4ccccn4)NC(=O)CN(C)C3=O)cc2)cc1 [Example 605] ({CH2CO}-[Tle][Bip][Bip(4'-NHAc)][Sar][2Pal]D[dR]VPV[2Thi]LCG-NH2; thioether N-13) | 5.70 to 6.70 | – |

Continued, in another order:

| pIC50 [1] | SMILES | pIC50 |
| --- | --- | --- |
| > 7.30 | CC(C)C[C@@H]1NC(=O)[C@H](CCCNC(=N)N)NC(=O)[C@H](C(C)C)NC(=O)[C@@H]2CCCN2C(=O)[C@H](C(C)C)NC(=O)[C@@H](CCCNC(=N)N)NC(=O)[C@H](CC(=O)O)NC(=O)[C@H](Cc2ccc(O)cc2)NC(=O)CN(C)C(=O)[C@H](Cc2ccc(-c3ccccc3)cc2)NC(=O)[C@H](Cc2ccc(-c3ccccc3)cc2)NC(=O)[C@H](CN2CCOCC2)NC(=O)CSC[C@@H](C(=O)NCC(N)=O)NC1=O [Example 76] ({CH2CO}-[Ala(morpholin-4-yl)][Bip][Bip][Sar]YD[dR]VPVRLCG-NH2; thioether N-13) | – |
| > 7.30 | CC[C@H](C)[C@@H]1NC(=O)[C@@H](CCCNC(=N)N)NC(=O)[C@H](CC(=O)O)NC(=O)[C@@H]2CCCN2C(=O)CN(C)C(=O)[C@H](Cc2ccc(-c3ccc(NC(=O)c4cccc(CC(=O)O)c4)cc3)cc2)NC(=O)[C@H](Cc2ccc(-c3ccc(C(=O)O)cc3)cc2)NC(=O)[C@H](CN2CCOCC2)NC(=O)CSC[C@@H](C(=O)NCC(N)=O)NC(=O)[C@H](CC(C)C)NC(=O)[C@H](Cc2cnc[nH]2)NC(=O)[C@H](C(C)C)NC(=O)[C@@H]2CCCN2C1=O [Example 578] ({CH2CO}-[Ala(morpholin-4-yl)][Bip(4'-COOH)][Bip(4'-NHCO-C6H4-3-CH2COOH)][Sar]PD[dR]IPVHLCG-NH2; thioether N-13) | – |
| > 7.30 | CC(C)C[C@@H]1NC(=O)[C@H](CCCNC(=N)N)NC(=O)[C@H](C(C)C)NC(=O)[C@@H]2CCCN2C(=O)[C@H](C(C)C)NC(=O)[C@@H](CCCNC(=N)N)NC(=O)[C@H](CC(=O)O)NC(=O)[C@@H]2CCCN2C(=O)CN(C)C(=O)[C@H](Cc2ccc(-c3ccc(NC(=O)c4coc5ccccc45)cc3)cc2)NC(=O)[C@H](Cc2ccc(-c3ccccc3)cc2)NC(=O)[C@H](CN2CCOCC2)NC(=O)CSC[C@@H](C(=O)NCC(N)=O)NC1=O [Example 346] ({CH2CO}-[Ala(morpholin-4-yl)][Bip][X47][Sar]PD[dR]VPVRLCG-NH2; thioether N-13) | – |
| > 7.30 | CC(C)C[C@@H]1NC(=O)[C@H](Cc2ccc(O)cc2)NC(=O)[C@H](C(C)C)NC(=O)[C@@H]2Cc3ccccc3CN2C(=O)[C@H](CC(N)=O)NC(=O)[C@@H](CCCNC(=N)N)NC(=O)[C@H](CC(=O)O)NC(=O)[C@H](Cc2ccc(O)cc2)NC(=O)CN(C)C(=O)[C@H](Cc2ccc(-c3ccccc3)cc2)NC(=O)[C@H](Cc2ccc(-c3ccc(C(=O)O)cc3)cc2)NC(=O)[C@H](CN2CCOCC2)NC(=O)CSC[C@@H](C(=O)NCC(N)=O)NC1=O [Example 146] ({CH2CO}-[Ala(morpholin-4-yl)][Bip(4'-COOH)][Bip][Sar]YD[dR]N[Tic]VYLCG-NH2; thioether N-13) | – |
